# Tests used:
# DGKα = target: T1, DGKα (Homo sapiens, UniProt P23743); assay: In vitro DGKα inhibition assay (ADP-Glo); type: biochemical; details: His-tagged human recombinant DGKα 0.1 nM, 50 μM ATP, 20 μM DLG, 90 minute incubation
# T1 construct: His; purchased Signal Chem D21-10BH
# Protocol: (§1) The DGKα and DGKζ biochemical reactions were performed using His-tagged human recombinant enzymes (Signal Chem, DGKα, #D21-10BH; DGKζ, #D30-10H)) and DLG (Dilauroyl-sn-glycerol) lipid substrate (Signal Chem, #D430-59). ADP-Glo assay was performed using ADP-Glom kinase Assay kit (Promega, #V9104). The reactions were carried out in assay buffer containing 40 mM Tris, pH 7.5, 0.1% CHAPS, 0.1% Prionex, 40 mM NaCl, 5 mM MgCl2, 1 mM CaCl2), and 1 mM DTT. DGKα reactions contained 0.1 nM DGKα, 50 μM ATP, and 20 μM DLG. And DGKζ reactions contained 0.4 nM DGKζ, 30 μM ATP, and 20 μM DLG.
# (§2) For compound inhibition studies, 40 nL test compound in DMSO was added to wells of white polystyrene plates in 384-well (Greiner, #784075) or 1536-well format (Greiner, #782075). Compounds were added with top concentration of 2 mM with 11 point, 3-fold dilution series. Enzyme solution (contains 2×DGK enzyme concentration in 1× assay buffer) was added to the plate in 2 μL/well volume, followed by 2 μL/well of substrate solution (contains 2× concentration of ATP and DLG substrate in 1× assay buffer). Plates were then centrifuged for 1 min at 1200 RPM and sealed or lidded. For 4 μL reaction volume, test compounds were therefore diluted 100× to final top concentration of 20 μM. After 90 minute incubation, reactions were quenched by addition of 2 μL/well Promega ADP-Glo Reagent, followed by centrifugation and lidding. After 60 min incubation, 2 μL/well Promega Kinase Detection Reagent was added, plates centrifuged, and incubated for 30 min. Plates were then read using Luminescence method on BMG PHERAstar FSX plate reader. Percent inhibition was calculated and IC50s were determined using 4-parameter fit in Genedata Screener. Labcyte Echo acoustic dispenser was used for compound addition, and Formulatrix Tempest liquid handler was used for all reagent dispenses.
# DGKζ = target: T2, DGKζ (Homo sapiens, UniProt Q13574); assay: In vitro DGKζ inhibition assay (ADP-Glo); type: biochemical; details: His-tagged human recombinant DGKζ 0.4 nM, 30 μM ATP, 20 μM DLG, 90 minute incubation
# T2 construct: His; purchased Signal Chem D30-10H
# Protocol: as §1, §2
# T1 sequence (P23743 whole entry): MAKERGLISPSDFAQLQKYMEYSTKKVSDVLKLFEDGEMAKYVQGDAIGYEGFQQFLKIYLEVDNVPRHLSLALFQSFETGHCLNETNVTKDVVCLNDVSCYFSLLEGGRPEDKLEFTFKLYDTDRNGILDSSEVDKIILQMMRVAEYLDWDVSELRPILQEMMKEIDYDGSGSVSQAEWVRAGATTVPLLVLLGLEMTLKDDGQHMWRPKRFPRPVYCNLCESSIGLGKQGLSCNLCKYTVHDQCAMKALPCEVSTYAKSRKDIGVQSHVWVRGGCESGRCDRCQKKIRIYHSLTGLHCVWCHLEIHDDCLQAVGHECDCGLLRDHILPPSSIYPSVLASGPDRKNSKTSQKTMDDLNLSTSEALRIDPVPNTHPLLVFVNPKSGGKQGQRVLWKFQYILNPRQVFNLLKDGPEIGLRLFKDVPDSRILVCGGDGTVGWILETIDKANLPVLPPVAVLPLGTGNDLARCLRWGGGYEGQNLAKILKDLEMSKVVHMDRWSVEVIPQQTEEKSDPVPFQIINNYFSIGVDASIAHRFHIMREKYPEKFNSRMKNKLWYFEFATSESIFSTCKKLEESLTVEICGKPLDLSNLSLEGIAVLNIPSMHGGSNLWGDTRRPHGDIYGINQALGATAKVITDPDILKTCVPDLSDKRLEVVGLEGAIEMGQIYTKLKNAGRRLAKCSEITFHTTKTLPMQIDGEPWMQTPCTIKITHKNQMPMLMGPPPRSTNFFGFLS
# T2 sequence (Q13574 whole entry): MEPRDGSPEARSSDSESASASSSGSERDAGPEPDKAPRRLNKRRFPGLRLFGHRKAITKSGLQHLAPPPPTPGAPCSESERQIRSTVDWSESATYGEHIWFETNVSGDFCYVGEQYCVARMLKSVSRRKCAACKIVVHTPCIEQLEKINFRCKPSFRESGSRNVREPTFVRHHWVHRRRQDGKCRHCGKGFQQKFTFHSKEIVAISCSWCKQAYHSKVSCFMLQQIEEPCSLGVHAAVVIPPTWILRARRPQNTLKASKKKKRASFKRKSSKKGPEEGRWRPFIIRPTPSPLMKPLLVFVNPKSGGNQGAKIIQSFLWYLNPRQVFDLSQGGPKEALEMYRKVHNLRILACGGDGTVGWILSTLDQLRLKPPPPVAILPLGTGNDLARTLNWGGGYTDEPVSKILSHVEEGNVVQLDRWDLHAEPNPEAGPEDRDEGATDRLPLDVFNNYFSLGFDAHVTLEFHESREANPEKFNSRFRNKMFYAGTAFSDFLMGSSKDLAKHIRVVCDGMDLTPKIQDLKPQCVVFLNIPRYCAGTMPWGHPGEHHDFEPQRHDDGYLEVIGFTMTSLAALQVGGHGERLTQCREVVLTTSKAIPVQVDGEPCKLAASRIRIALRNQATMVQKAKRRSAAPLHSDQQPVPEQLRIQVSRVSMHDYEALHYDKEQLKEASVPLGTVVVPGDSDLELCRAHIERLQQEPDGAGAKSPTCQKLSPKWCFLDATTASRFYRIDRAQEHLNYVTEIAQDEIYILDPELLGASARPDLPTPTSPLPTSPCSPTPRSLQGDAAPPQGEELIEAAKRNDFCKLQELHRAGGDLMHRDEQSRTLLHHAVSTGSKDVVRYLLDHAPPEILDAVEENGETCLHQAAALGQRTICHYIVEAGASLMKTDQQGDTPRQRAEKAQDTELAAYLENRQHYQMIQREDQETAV
SMILES,IC50 (DGKα),IC50 (DGKζ)
"COCCN1C(=O)[C@H]2CN(C(c3ccc(F)cc3)c3ccc(F)cc3)[C@H](C)CN2c2c1c(=O)n(C)c1ccc(C#N)nc21 [Example 2, (8aR,11R)-10-(Bis(4-fluorophenyl)methyl)-7-(2-methoxyethyl)-5,11-dimethyl-6,8-dioxo-5,7,8,8a,9,10,11,12-octahydro-6H-pyrazino[1′,2′:4,5]pyrazino[2,3-c][1,5]naphthyridine-2-carbonitrile]",0.04 to 0.2 µM,0.2 to 2 µM
"C[C@@H]1CN2c3c(c(=O)n(C)c4ccccc34)N(C)C(=O)[C@H]2CN1C(c1ccc(F)cc1)c1ccc(F)cc1 [Example 3, (2R,4aR)-3-(Bis(4-fluorophenyl)methyl)-2,6,8-trimethyl-2,3,4,4a,6,8-hexahydro-1H-pyrazino[1′,2′:4,5]pyrazino[2,3-c]quinoline-5,7-dione]",≤ 0.04 µM,> 2 µM
"C[C@@H]1CN2c3c(c(=O)n(C)c4ccc(CC#N)nc34)N(C)C(=O)[C@H]2CN1C(c1ccc(F)cc1)c1ccc(F)cc1 [Example 6, 2-((8aR,11R)-10-(Bis(4-fluorophenyl)methyl)-5,7,11-trimethyl-6,8-dioxo-5,7,8,8a,9,10,11,12-octahydro-6H-pyrazino[1′,2′:4,5]pyrazino[2,3-c][1,5]naphthyridin-2-yl)acetonitrile]",≤ 0.04 µM,≤ 0.04 µM
"C[C@@H]1CN2c3c(c(=O)n(C)c4ccc(-c5cnn(C)c5)nc34)N(C)C(=O)[C@H]2CN1C(c1ccc(F)cc1)c1ccc(F)cc1 [Example 8, (8aR,11R)-10-(Bis(4-fluorophenyl)methyl)-5,7,11-trimethyl-2-(1-methyl-1H-pyrazol-4-yl)-5,7,9,10,11,12-hexahydro-6H-pyrazino[1′,2′:4,5]pyrazino[2,3-c][1,5]naphthyridine-6,8(8aH)-dione]",≤ 0.04 µM,> 2 µM
"C[C@@H]1CN2c3c(c(=O)n(C)c4ccc(=O)[nH]c34)N(C)C(=O)[C@H]2CN1C(c1ccc(F)cc1)c1ccc(F)cc1 [Example 9, (8aR,11R)-10-(Bis(4-fluorophenyl)methyl)-5,7,11-trimethyl-5,7,9,10,11,12-hexahydro-1H-pyrazino[1′,2′:4,5]pyrazino[2,3-c][1,5]naphthyridine-2,6,8(8aH)-trione]",≤ 0.04 µM,> 2 µM

# Further lines, results first:
IC50 (DGKα),IC50 (DGKζ),SMILES
≤ 0.04 µM,0.2 to 2 µM,"C[C@@H]1CN2c3c(c(=O)n(C)c4ccc(C#N)nc34)N(C)C(=O)[C@H]2CN1C(c1ccc(F)cc1)c1ccc(F)cc1 [Example 1, (8aR,11R)-10-(Bis(4-fluorophenyl)methyl)-5,7,11-trimethyl-6,8-dioxo-5,7,8,8a,9,10,11,12-octahydro-6H-pyrazino[1′,2′:4,5]pyrazino[2,3-c][1,5]naphthyridine-2-carbonitrile]"
≤ 0.04 µM,0.2 to 2 µM,"C[C@@H]1CN2c3c(c(=O)n(C)c4ccc(F)nc34)N(C)C(=O)[C@H]2CN1C(c1ccc(F)cc1)c1ccc(F)cc1 [Example 4, (8aR,11R)-10-(Bis(4-fluorophenyl)methyl)-2-fluoro-5,7,11-trimethyl-5,7,9,10,11,12-hexahydro-6H-pyrazino[1′,2′:4,5]pyrazino[2,3-c][1,5]naphthyridine-6,8(8aH)-dione]"
≤ 0.04 µM,> 2 µM,"Cc1ccc2c(n1)c1c(c(=O)n2C)N(C)C(=O)[C@H]2CN(C(c3ccc(F)cc3)c3ccc(F)cc3)[C@H](C)CN12 [Example 5, (8aR,11R)-10-(Bis(4-fluorophenyl)methyl)-2,5,7,11-tetramethyl-5,7,9,10,11,12-hexahydro-6H-pyrazino[1′,2′:4,5]pyrazino[2,3-c][1,5]naphthyridine-6,8(8aH)-dione]"
≤ 0.04 µM,> 2 µM,"COc1ccc2c(n1)c1c(c(=O)n2C)N(C)C(=O)[C@H]2CN(C(c3ccc(F)cc3)c3ccc(F)cc3)[C@H](C)CN12 [Example 7, (8aR,11R)-10-(Bis(4-fluorophenyl)methyl)-2-methoxy-5,7,11-trimethyl-5,7,9,10,11,12-hexahydro-6H-pyrazino[1′,2′:4,5]pyrazino[2,3-c][1,5]naphthyridine-6,8(8aH)-dione]"
